Values joined by “and” are separate entries in the source; they are usually repeats but may differ in a detail not shown here. Equal values may be shown once. Marks after values point to notes of the source that are not given here.
Assays:
Caco-2 cell monolayer = experiment: Caco-2 monolayer transport (bioavailability) study, AB and BA directions; format: in vitro ADME, Homo sapiens; details: for reduction in concentration on the apical (donor) side: 0 to 180 min; for TE (%) transport efficiency: after 180 min
Outline: (§1)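 Grape skin extract in HBSS (15 or 22 mg/mL) applied to 21-day Caco-2 monolayers (TEER ≥300 Ω cm²) in AB and BA directions; acceptor samples quantified per polyphenol by HPLC-UV. Papp from steady-state flux over 1.12 cm², efflux ratio as Papp(BA)/Papp(AB), plus transport efficiency (C/C0).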

[1] = as above; format: in vitro ADME, Homo sapiens; details: human
Outline: as §1

[2] = AB experiment, S1 (15 mg/mL GSE)
[3] = AB experiment, S2 (22 mg/mL GSE)
[4] = AB experiment, acceptor side, S1 (15 mg/mL GSE)
[5] = AB experiment, acceptor side, S2 (22 mg/mL GSE)
[6] = AB experiment, donor side, S1 (15 mg/mL GSE)
[7] = AB experiment, donor side, S2 (22 mg/mL GSE)
[8] = BA experiment, acceptor side, S1 (15 mg/mL GSE)
[9] = BA experiment, acceptor side, S2 (22 mg/mL GSE)
[10] = BA experiment, donor side, S1 (15 mg/mL GSE)
[11] = BA experiment, donor side, S2 (22 mg/mL GSE)

## O=c1c(O[C@@H]2O[C@H](CO)[C@@H](O)[C@H](O)[C@H]2O)c(-c2ccc(O)cc2)oc2cc(O)cc(O)c12 [K3G, kaempferol-3-glucoside]
Caco-2 cell monolayer; [2]
  reduction in concentration on the apical (donor) side: 33.6 ± 0.5%
  TE (%) transport efficiency: 97 ± 2%
Caco-2 cell monolayer; [3]
  reduction in concentration on the apical (donor) side: 28.7 ± 0.9%
  TE (%) transport efficiency: 60 ± 1% and 60.2 ± 0.9%
Caco-2 cell monolayer; [4]
  Basolateral Side 75 min: 6.2 ± 0.1 ^b mg/L
  Basolateral Side 90 min: 6.7 ± 0.1 ^c mg/L
  Basolateral Side 115 min: 7.1 ± 0.1 ^c mg/L
  Basolateral Side 180 min: 7.4 ± 0.1 ^c mg/L
Caco-2 cell monolayer; [5]
  Basolateral Side 75 min: 6.4 ± 0.1 ^b mg/L
  Basolateral Side 90 min: 6.8 ± 0.2 ^c mg/L
  Basolateral Side 115 min: 7.2 ± 0.2 ^d,c mg/L
  Basolateral Side 180 min: 7.6 ± 0.2 ^c mg/L
Caco-2 cell monolayer; [6]
  Apical Side 0 min: 7.7 ± 0.3 mg/L and 7.7 ± 0.3 ^a mg/L
  Apical Side 75 min: 7.1 ± 0.2 ^b mg/L
  Apical Side 90 min: 6.7 ± 0.2 ^b,c mg/L
  Apical Side 115 min: 6.4 ± 0.2 ^c mg/L
  Apical Side 180 min: 5.0 ± 0.2 mg/L and 5.1 ± 0.2 ^d mg/L
Caco-2 cell monolayer; [7]
  Apical Side 0 min: 12.7 ± 0.3 mg/L and 12.7 ± 0.3 ^a mg/L
  Apical Side 75 min: 11.8 ± 0.3 ^b mg/L
  Apical Side 90 min: 11.3 ± 0.3 ^b,c mg/L
  Apical Side 115 min: 10.6 ± 0.23 ^c mg/L
  Apical Side 180 min: 9.0 ± 0.2 mg/L and 9.0 ± 0.2 ^d mg/L
Caco-2 cell monolayer; AB experiments, basolateral side
  detection at the acceptor side: detected
Caco-2 cell monolayer; BA experiment, S1 (15 mg/mL GSE)
  TE (%) transport efficiency: 130 ± 3%
Caco-2 cell monolayer; BA experiment, S2 (22 mg/mL GSE)
  TE (%) transport efficiency: 109.0 ± 0.9%
Caco-2 cell monolayer; [8]
  Apical Side 75 min: 6.1 ± 0.3 ^b mg/L
  Apical Side 90 min: 7.4 ± 0.3 ^c mg/L
  Apical Side 115 min: 8.7 ± 0.4 ^d mg/L
  Apical Side 180 min: 9.9 ± 0.4 ^c mg/L
Caco-2 cell monolayer; [9]
  Apical Side 75 min: 6.8 ± 0.2 ^a,b mg/L
  Apical Side 90 min: 8.1 ± 0.2 ^b,c mg/L
  Apical Side 115 min: 9.4 ± 0.3 ^c,d mg/L
  Apical Side 180 min: 10.6 ± 0.3 ^c mg/L
Caco-2 cell monolayer; [10]
  Basolateral Side 0 min: 7.6 ± 0.2 ^a mg/L
  Basolateral Side 75 min: 7.2 ± 0.2 ^b mg/L
  Basolateral Side 90 min: 6.9 ± 0.2 ^c mg/L
  Basolateral Side 115 min: 6.6 ± 0.1 ^d mg/L
  Basolateral Side 180 min: 6.1 ± 0.1 ^c mg/L
Caco-2 cell monolayer; [11]
  Basolateral Side 0 min: 9.8 ± 0.2 ^a mg/L
  Basolateral Side 75 min: 9.5 ± 0.2 ^b mg/L
  Basolateral Side 90 min: 9.3 ± 0.2 ^c mg/L
  Basolateral Side 115 min: 9.1 ± 0.2 ^d mg/L
  Basolateral Side 180 min: 8.5 ± 0.2 ^c mg/L
Caco-2 cell monolayer; BA experiments, apical side
  detection at the acceptor side: detected
[1]; Caco-2, Papp (BA)/Papp (AB), S1 (15 mg/mL GSE), read-out: ER (efflux ratio)
  efflux ratio at 180 min, 15 mg/mL: 1.1
[1]; Caco-2, Papp (BA)/Papp (AB), S2 (22 mg/mL GSE), read-out: ER (efflux ratio)
  efflux ratio at 180 min, 22 mg/mL: 1.3
[1]; Caco-2, text statement, S1 and S2
  efflux ratio at 180 min: > 1
[1]; Caco-2, apical to basolateral, S1 (15 mg/mL GSE)
  Papp A→B at 180 min, 15 mg/mL: 1160 ± 20 ×10⁻⁶ cm/s
[1]; Caco-2, apical to basolateral, S2 (22 mg/mL GSE)
  Papp A→B at 180 min, 22 mg/mL: 730 ± 40 ×10⁻⁶ cm/s
[1]; Caco-2, basolateral to apical, S1 (15 mg/mL GSE)
  Papp B→A at 180 min, 15 mg/mL: 1230 ± 30 ×10⁻⁶ cm/s
[1]; Caco-2, basolateral to apical, S2 (22 mg/mL GSE)
  Papp B→A at 180 min, 22 mg/mL: 970 ± 30 ×10⁻⁶ cm/s

— article PMC12248599, “Exploring the Bioavailability of Red Grape Skin Extract Polyphenols: A Caco-2 Cell Model Study” (Foods, 2025)
